Data: patent publication US20260226054A1, “CRYSTAL FORM AND AMORPHOUS SUBSTANCE OF INDOLINE SPIRO COMPOUND, AND PREPARATION METHOD THEREFOR AND USE THEREOF” (CHANGCHUN GENESCIENCE PHARMACEUTICAL CO., LTD., priority 2022, published 2026)
pEC50: −log10 of the molar value.

Experiments:
[1] = target: T1, human GHSR (Homo sapiens, UniProt Q92847); experiment: Agonistic activity on human GHSR in human GHSR/CHO cells (FLIPR calcium); type: cell-based; conditions: human GHSR/CHO stable transformant cells, Fluo-4 FLIPR
T1 construct: expressed in transfected cells
Method: This method is used for determining the agonistic activity effect of the compound in the present invention on human GHSR protein expressed in human GHSR/CHO stable transformant cells.
Preparation of buffer solution: HBSS (1X): HEPES (1M)=49:1, 0.5% BSA added.
Human GHSR/CHO containing stable transformant cells were inoculated in a 384-well plate, a cell plate was taken out after overnight, the culture medium was removed, and 20 μL of buffer solution was slowly added in each well, then 20 μL of 2X Fluo-4 Direct™ No-wash Loading Buffer was added in each well. The cell plate was incubated in an incubator containing 5% of CO2 at 37° C. for 50 min, and the cell plate was taken out and placed at room temperature for 10 min. 30 μL of buffer solution was added to each well in the compound plate; an additional buffer solution plate was prepared, and 30 μL of buffer solution was added to each well. […] 10 μL of buffer solution was transferred to the cell plate, the fluorescence signal values were read. 10 μL of compound was transferred to the cell plate, the fluorescence signal values were read. The maximum-minimum values from the 91st signal point to the 230th signal point were calculated through the FLIPR program. The EC50 value of the compound could be calculated by the software using the fluorescence value corresponding to the different concentrations.

[2] = in vitro; conditions: human, Caco-2, pH 7.4
Method: A transport buffer solution in the study was HBSS containing 10.0 mM of HEPSS, and had pH of 7.40±0.05. The compound to be tested was subjected to bidirectional test at 2.00 μM, and the final concentration of DMSO was required to be less than 1%. In a CO2 incubator at 37±1° C., the cell plate was stood and incubated for 2 h under CO2 at 5% […] and saturated humidity. After mixing all samples with acetonitrile containing internal standard, the mixture was centrifuged at 3200×g for 10 min. The compound was tested, 100 μL of supernatant was diluted with 100 μL of ultrapure water for LC-MS/MS analysis. The concentration of the test compound and a control compound (Digoxin as a model verification compound and ibutamoren as a positive control) in a donor solution and a receiver solution was quantified by an LC-MS/MS method using the peak area ratio of the analyte/internal standard. After transport determination, a lucifer yellow exclusion determination was carried out to determine the integrity of the Caco-2 cell monolayer.

T1 sequence (Q92847 whole entry): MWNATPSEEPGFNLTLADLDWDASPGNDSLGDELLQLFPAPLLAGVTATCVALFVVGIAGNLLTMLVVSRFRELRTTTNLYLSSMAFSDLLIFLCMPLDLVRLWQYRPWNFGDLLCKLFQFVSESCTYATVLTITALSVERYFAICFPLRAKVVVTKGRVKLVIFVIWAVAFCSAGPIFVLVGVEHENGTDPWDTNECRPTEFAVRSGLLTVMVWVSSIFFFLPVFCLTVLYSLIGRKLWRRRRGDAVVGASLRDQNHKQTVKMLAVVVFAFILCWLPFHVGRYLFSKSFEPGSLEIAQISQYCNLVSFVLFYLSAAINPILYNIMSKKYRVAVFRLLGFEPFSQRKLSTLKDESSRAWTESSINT

## CC(OC(=O)NC(C)(C)C(=O)N[C@H](COCc1ccccc1)C(=O)N1CCC2(CC1)CN(S(C)(=O)=O)c1ccccc12)OC(=O)C(C)C (stereo partly drawn) [Compound 1e, (4R)-7,7-dimethyl-4-(1-(methylsulfonyl)spiro[indoline-3,4′-piperidine]-1′-carbonyl)-6,9-dioxo-1-phenyl-2,10-dioxa-5,8-diazadodecane-11-ylisobutyrate]
[1]
  pEC50: 7.84
[2]
  Papp A→B at 2 h, 2 μM: 0.0518 ×10⁻⁶ cm/s
  Papp B→A at 2 h, 2 μM: 8.8 ×10⁻⁶ cm/s
  efflux ratio at 2 h, 2 μM: 170
